What was measured:
[1] = test system: S. aureus (Wood 46, NCTC 7121); experiment: Antimicrobial susceptibility testing by flow cytometry-based assay (LIVE/DEAD BacLight, Syto9/PI); format: cell-based, Staphylococcus aureus; details: 30 minutes
Description: E. coli (strain NCTC 10418), P. aeruginosa (Strain PAO1) and S. aureus (Wood 46, NCTC 7121) cells were grown in 5 mL of Todd Hewitt Broth medium (THB; Sigma-Aldrich). Bacteria were cultivated at 37° C. for 15 h in a 15 mL tube to obtain late-log phase cultures. Bacterial cultures were pelleted at 3096 g for 10 minutes; the supernatant was discarded and bacteria were resuspended in phosphate-buffered saline (PBS) supplemented with 40 mg/ml human albumin to mimic chemical properties of blood. Bacteria were diluted to a standardized inoculum of 10^9 CFU/mL.
Bacteria were treated with GA, LL-37, Piperacillin/Tazobactam or Vancomycin in varying concentrations, i.e. 50, 25, 10 or 2 μg/ml, for 30 minutes. As a positive control, bacteria were treated with 7% isopropanol. Hereafter, bacteria were pelleted at 3096 g for 10 minutes; the supernatant was discarded and bacteria were resuspended in PBS. The antimicrobial effect was tested in a well-established and widely used flow cytometry-based assay (LIVE/DEAD® BacLight™ Bacterial Viability and Counting Kit (L34856), Molecular Probes/Invitrogen) according to manufacturer's manual.
For each bacteria, the flow cytometry-based assay was repeated four times.

[2] = test system: S. aureus (Wood 46); experiment: Antimicrobial susceptibility testing (MIC) by the oCelloScope system; format: cell-based, Staphylococcus aureus; details: CAMHBT broth, SESA growth curves
Description: E. coli (strain NCTC 10418) and S. aureus (Wood 46, NCTC 7121) were grown overnight in Sensititre® cation-adjusted Mueller-Hinton broth with TES (CAMHBT, TREK Diagnostic System). Bacterial cell suspensions were adjusted to 0.5 McFarland standard using a nephelometer. Subsequently, bacteria were diluted in CAMHBT according to the recommended final inoculum size for broth dilution (5×10^5 colony-forming units (CFU) ml^−1) (Wiegand, I., K. Hilpert, and R. E. Hancock, Agar and broth dilution methods to determine the minimal inhibitory concentration (MIC) of antimicrobial substances. Nat Protoc, 2008. 3(2): p. 163-75) and analyzed in Nunc Edge 96-well plates by the oCelloScope system.
The oCelloScope is a digital time-lapse microscopy technology that scans through a fluid sample generating series of images as described in 2013 by Fredborg et al. (Fredborg, M., et al., Real-time optical antimicrobial susceptibility testing. J Clin Microbiol, 2013. 51(7): p. 2047-53). As a result of the tilted imaging plane, the images recorded by the oCelloScope system constitute a parallelepipedum that forms the image stack. […] Growth kinetics was determined by image stack processing based on contrast based Segmentation and Extraction of Surface Area (SESA). […]
The effect of GA on bacterial growth was further evaluated using, an optical screening system (oCelloScope) (FIG. 6). […]

[3] = test system: P. aeruginosa (PAO1); experiment: Binding of Alexa Fluor 488-labeled GA to bacteria (MFI by flow cytometry); set-up: species or system Pseudomonas aeruginosa; details: PBS + 50 mM NaCl, total salt 200 mM, GA 50 and 10 μg/ml
Description: GA was diluted in freshly made 0.1 M NaHCO3 and labeled with Alexa Fluor 488 according to manufacturer's instruction. Late-log phase E. coli (strain NCTC 10418), P. aeruginosa (strain PAO1, ATCC 15692) and S. aureus (Wood 46, NCTC 7121) were resuspended in PBS or PBS supplemented with 50 mM NaCl; treated with either 50 μg/ml or 10 μg/ml Alexa Fluor® 488-labeled GA and incubated on a shaker at 37° C. for 30 minutes. Hereafter, bacteria were diluted 1:100 in PBS and analyzed on a Novocyte™ flow cytometer.
This constitutes a problem when for example treating patients with cystic fibrosis. These patients have a high salt concentration in their lungs of about 150-200 mM, and it is therefore critical that drugs used for treating these patients are active at such high salt concentrations (Gilljam H et al., Scand J Clin Lab Invest. 1989 April; 49(2):121-4). Therefore, the binding capacity of GA to bacteria resuspended in PBS or in PBS supplemented with 50 mM NaCl. PBS+50 mM NaCl results in a total salt concentration of 200 mM. […]
Mean Fluorescence intensities (MFI) were assessed by flow cytometry to quantify the binding capacity of GA to the bacterial membrane. […]

[4] = test system: S. aureus (Wood 46); experiment: Transmission electron microscopy of treated bacteria; format: cell-based, Staphylococcus aureus
From the text: Transmission electron microscopy (TEM) was applied to examine the ultrastructural changes in P. aeruginosa (PAO1), S. aureus (Wood 46) and E. coli (NCTC 10418) induced after treatment with GA and LL-37. […] This critical alteration in the outer membrane of E. coli has previously been described as a disintegration of the outer membrane into micelles and vesicle-like structures (Meincken, M., D. L. Holroyd, and M. Rautenbach, Atomic force microscopy study of the effect of antimicrobial peptides on the cell envelope of Escherichia coli. Antimicrob Agents Chemother, 2005. 49(10): p. 4085-92). […] After incubation with LL-37 and GA, we found burst cells, but this observation was most significant after treatment with LL-37 (FIG. 9). Scale bar, 0.5 μm. Experiments were performed as 2 replicates.

## Glatiramer acetate [GA]
[1]
  percentage of bacteria testing positive for PI: 12.1%
[2]
  MIC: 500 µg/mL
[3]
  binding capacity to bacteria (MFI, in words): retained its binding capacity
[4]
  ultrastructural changes (TEM, in words): burst cells
